Source: ChEMBL document CHEMBL5537182, “Small Molecule Benzothiophene with In Vivo Efficacy in a Mouse Model of Drug-Resistant Enterococcus faecium Infection” (J Med Chem, 2024)
Converted amounts (≈) assume the structure as drawn. The source made the active and inactive calls. The rule behind the calls is not given here.

Key:
Enterococcus faecium [1] = assay: Anti-bacterial activity against drug-resistant Enterococcus faecium NCTC 7171 assessed as invisible pellets in media measured after overnight incubation; type: functional
[2] = Cytotoxicity against African green monkey Vero cells assessed as cell viability incubated for 48 hrs by MTT assay; type: toxicity, cell-based; details: chlorocebus sabaeus
Enterococcus faecium [3] = assay: Anti-bacterial activity against vancomycin-resistant Enterococcus faecium EN 2966 assessed as invisible pellets in media measured after overnight incubation; type: functional
Enterococcus faecium [4] = assay: In vivo anti-bacterial activity against vancomycin-resistant Enterococcus faecium EN 2966 infected immunocompetent mouse model of acute peritonitis-sepsis assessed as protection at 100 mg/kg, sc measured upto 3 days; type: functional, organism-based; details: time <= 3.0 day
Cytochrome P450 1A2 = target: T1, Cytochrome P450 1A2 (Homo sapiens, UniProt P05177); assay: Inhibition of CYP1A2 in human liver microsomes using phenacetin as substrate; type: ADME, Microsome
T1 sequence (P05177 whole entry): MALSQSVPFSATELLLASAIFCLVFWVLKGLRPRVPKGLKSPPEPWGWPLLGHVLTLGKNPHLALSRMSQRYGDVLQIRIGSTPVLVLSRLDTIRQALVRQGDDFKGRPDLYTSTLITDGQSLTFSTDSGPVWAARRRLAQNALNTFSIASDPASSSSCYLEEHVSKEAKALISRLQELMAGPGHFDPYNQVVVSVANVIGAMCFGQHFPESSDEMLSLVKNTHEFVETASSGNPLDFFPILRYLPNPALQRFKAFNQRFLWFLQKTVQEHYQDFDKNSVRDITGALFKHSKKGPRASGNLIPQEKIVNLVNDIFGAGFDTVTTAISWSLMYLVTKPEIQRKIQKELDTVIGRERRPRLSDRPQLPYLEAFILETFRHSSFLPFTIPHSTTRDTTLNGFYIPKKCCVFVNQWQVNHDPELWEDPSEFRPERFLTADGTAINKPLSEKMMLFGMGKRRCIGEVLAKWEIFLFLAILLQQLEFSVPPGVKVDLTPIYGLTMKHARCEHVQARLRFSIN

[5] = Metabolic stability in mouse liver microsomes assessed as half life by LC-MS/MS analysis; type: ADME, Microsome
[6] = Kinetic solubility of the compound in aqueous buffer at pH 7.4 measured after 4 hrs by LC-MS/MS analysis; type: physicochemical; details: read-out: Kinetic_solubility
Enterococcus faecium [7] = assay: Release of NO in drug-resistant Enterococcus faecium NCTC 7171 assessed as NO generation at 100 uM measured upto 2 hrs by Griess assay; type: functional, organism-based
[8] = Plasma protein binding in mouse at 5 uM measured after 5 hrs by LC-MS/MS analysis; type: ADME, cell-free; details: read-out: PPB
[9] = Oral bioavailability in CD-1 mouse at 25 mg/kg by LC-MS/MS analysis; type: ADME, organism-based; details: in vivo
[10] = Plasma stability in human plasma assessed as remaining at 5 uM measured after 5 hrs by LC-MS/MS analysis; type: ADME, cell-free
Cytochrome P450 3A4 = Cytochrome P450 3A4 (Homo sapiens, UniProt P08684); assay: Inhibition of CYP3A4 in human liver microsomes using midazolam as substrate; type: ADME, Microsome
[11] = Toxicity in CD-1 mouse assessed as tolerability at 300 mg/kg, po; type: organism-based; details: in vivo
Enterococcus faecium [12] = assay: In vivo anti-bacterial activity against vancomycin-resistant Enterococcus faecium EN 2966 infected immunocompetent mouse model of acute peritonitis-sepsis assessed as protection at 150 mg/kg, po measured upto 3 days; type: functional, organism-based; details: time <= 3.0 day
Cytochrome P450 2C9 = Cytochrome P450 2C9 (Homo sapiens, UniProt P11712); assay: Inhibition of CYP2C9 in human liver microsomes using diclofenac as substrate; type: ADME, Microsome
[13] = Metabolic stability in human liver microsomes assessed as half life by LC-MS/MS analysis; type: ADME, Microsome
[14] = AUC (0 to 5 hrs) in CD-1 mouse at 25 mg/kg, po by LC-MS/MS analysis; type: ADME, organism-based; details: in vivo; for AUC(0-t): CD-1, mouse
Cytochrome P450 2C19 = Cytochrome P450 2C19 (Homo sapiens, UniProt P33261); assay: Inhibition of CYP2C19 in human liver microsomes using omeprazole as substrate; type: ADME, Microsome
[15] = Plasma protein binding in human at 5 uM measured after 5 hrs by LC-MS/MS analysis; type: ADME, cell-free; details: read-out: PPB (converted)
Cytochrome P450 2D6 = Cytochrome P450 2D6 (Homo sapiens, UniProt P10635); assay: Inhibition of CYP2D6 in human liver microsomes using dextromethorphan as substrate; type: ADME, Microsome
[16] = Plasma stability in mouse plasma assessed as remaining at 5 uM measured after 5 hrs by LC-MS/MS analysis; type: ADME, cell-free
Klebsiella pneumoniae = assay: Anti-bacterial activity against Klebsiella pneumonia BAA 2146 assessed as invisible pellets in media measured after overnight incubation; type: functional
Pseudomonas aeruginosa = assay: Anti-bacterial activity against Pseudomonas aeruginosa HER 1018 assessed as invisible pellets in media measured after overnight incubation; type: functional
Acinetobacter baumannii = assay: Anti-bacterial activity against Acinetobacter baumannii ATCC 19606 assessed as invisible pellets in media measured after overnight incubation; type: functional
Staphylococcus aureus = assay: Anti-bacterial activity against Staphylococcus aureus ATCC 43300 assessed as invisible pellets in media measured after overnight incubation; type: functional
Enterococcus faecium [17] = assay: Bactericidal activity against drug-resistant Enterococcus faecium NCTC 7171 assessed as invisible pellets in media measured after 2 days incubation; type: functional; details: NCTC 7171, 48 h, time 2 day

Sequence of Cytochrome P450 2D6 (P10635 whole entry): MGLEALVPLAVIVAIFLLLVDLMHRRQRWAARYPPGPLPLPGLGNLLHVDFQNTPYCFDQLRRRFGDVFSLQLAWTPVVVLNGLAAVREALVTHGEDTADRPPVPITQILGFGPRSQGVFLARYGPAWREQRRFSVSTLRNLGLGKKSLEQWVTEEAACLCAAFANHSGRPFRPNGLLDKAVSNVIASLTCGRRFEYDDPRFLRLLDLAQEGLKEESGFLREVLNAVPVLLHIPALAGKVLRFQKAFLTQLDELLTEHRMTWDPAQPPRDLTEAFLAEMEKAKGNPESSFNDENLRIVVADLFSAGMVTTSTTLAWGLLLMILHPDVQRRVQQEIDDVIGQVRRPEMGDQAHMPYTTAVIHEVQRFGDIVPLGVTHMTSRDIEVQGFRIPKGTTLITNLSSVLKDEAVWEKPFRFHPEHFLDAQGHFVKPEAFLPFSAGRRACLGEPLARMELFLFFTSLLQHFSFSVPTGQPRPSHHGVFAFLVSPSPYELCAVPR
Sequence of Cytochrome P450 3A4 (P08684 whole entry): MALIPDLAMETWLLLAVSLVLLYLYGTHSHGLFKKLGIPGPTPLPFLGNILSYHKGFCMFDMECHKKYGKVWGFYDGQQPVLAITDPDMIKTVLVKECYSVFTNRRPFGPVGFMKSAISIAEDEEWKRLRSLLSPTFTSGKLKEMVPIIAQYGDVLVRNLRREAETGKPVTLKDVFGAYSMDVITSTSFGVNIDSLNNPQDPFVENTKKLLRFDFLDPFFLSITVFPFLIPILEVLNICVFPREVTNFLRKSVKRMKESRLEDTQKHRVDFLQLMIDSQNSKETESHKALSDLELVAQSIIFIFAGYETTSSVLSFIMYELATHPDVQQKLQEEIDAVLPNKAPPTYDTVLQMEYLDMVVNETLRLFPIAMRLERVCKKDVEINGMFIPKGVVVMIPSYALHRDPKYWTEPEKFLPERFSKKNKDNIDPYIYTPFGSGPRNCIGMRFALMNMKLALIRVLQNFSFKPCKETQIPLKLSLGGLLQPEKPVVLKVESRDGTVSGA
Sequence of Cytochrome P450 2C9 (P11712 whole entry): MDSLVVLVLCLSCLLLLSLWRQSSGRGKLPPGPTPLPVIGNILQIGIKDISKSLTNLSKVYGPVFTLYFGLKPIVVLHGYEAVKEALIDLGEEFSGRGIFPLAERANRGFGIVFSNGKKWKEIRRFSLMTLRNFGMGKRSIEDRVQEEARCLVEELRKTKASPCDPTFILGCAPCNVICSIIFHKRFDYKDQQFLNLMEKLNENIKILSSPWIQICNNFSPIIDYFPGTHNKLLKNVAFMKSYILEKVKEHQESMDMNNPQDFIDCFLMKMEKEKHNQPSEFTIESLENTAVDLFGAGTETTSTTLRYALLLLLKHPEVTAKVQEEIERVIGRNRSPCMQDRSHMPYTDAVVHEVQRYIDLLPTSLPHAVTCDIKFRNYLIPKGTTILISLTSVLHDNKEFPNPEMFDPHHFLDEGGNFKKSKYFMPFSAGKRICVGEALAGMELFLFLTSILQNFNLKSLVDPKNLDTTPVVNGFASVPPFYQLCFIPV
Sequence of Cytochrome P450 2C19 (P33261 whole entry): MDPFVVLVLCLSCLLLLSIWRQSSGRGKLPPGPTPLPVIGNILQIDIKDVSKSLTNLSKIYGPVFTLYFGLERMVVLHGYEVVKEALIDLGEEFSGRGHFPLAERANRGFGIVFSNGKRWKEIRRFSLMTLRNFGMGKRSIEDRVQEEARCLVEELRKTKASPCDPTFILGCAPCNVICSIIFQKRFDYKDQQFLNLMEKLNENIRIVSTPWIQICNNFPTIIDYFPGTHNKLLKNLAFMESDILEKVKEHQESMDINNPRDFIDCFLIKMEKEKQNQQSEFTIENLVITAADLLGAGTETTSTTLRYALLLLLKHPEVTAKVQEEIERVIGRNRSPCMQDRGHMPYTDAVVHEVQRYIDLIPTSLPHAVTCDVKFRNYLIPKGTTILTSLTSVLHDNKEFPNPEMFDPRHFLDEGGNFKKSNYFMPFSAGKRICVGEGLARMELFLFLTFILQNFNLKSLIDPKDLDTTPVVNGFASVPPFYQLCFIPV

Compound | MIC (Enterococcus faecium [1]) | CC50 [2] | also measured
O=C(NNC(=O)c1csc2ccccc12)c1ccc([N+](=O)[O-])o1 | 15 µM (≈ 4.97 µg/mL) | 75 µM | –
O=C(NNC(=O)c1cc2cccnc2s1)c1ccc([N+](=O)[O-])o1 | > 100 µM | 150 µM | –
CN[C@H](CC(C)C)C(=O)N[C@H]1C(=O)N[C@@H](CC(N)=O)C(=O)N[C@H]2C(=O)N[C@H]3C(=O)N[C@H](C(=O)N[C@H](C(=O)O)c4cc(O)cc(O)c4-c4cc3ccc4O)[C@H](O)c3ccc(c(Cl)c3)Oc3cc2cc(c3O[C@@H]2O[C@H](CO)[C@@H](O)[C@H](O)[C@H]2O[C@H]2C[C@](C)(N)[C@H](O)[C@H](C)O2)Oc2ccc(cc2Cl)[C@H]1O [VANCOMYCIN] | 1.1 µM (≈ 1.59 µg/mL) | – | MIC (Enterococcus faecium [3]): ≥ 30 µM; Activity (Enterococcus faecium [4]): Active
O=C(NNC(=O)c1cc2c(Cl)cccc2s1)c1ccc([N+](=O)[O-])o1 | 34 µM (≈ 12.4 µg/mL) | 136 µM | –
CC(=O)NC[C@H]1CN(c2ccc(N3CCOCC3)c(F)c2)C(=O)O1 [LINEZOLID] | 4.6 µM (≈ 1.55 µg/mL) | – | MIC (Enterococcus faecium [3]): 4.7 µM (≈ 1.59 µg/mL)
O=C(NNC(=O)c1sc2cc(Cl)ccc2c1Cl)c1ccc([N+](=O)[O-])o1 | 1.9 µM (≈ 0.76 µg/mL) | > 120 µM | IC50 (Cytochrome P450 1A2): > 50 µM; t1/2 [5]: 16.6 min; solubility kinetic at 4 h [6]: 0.35 µM (≈ 0.14 µg/mL); Activity (Enterococcus faecium [7]): inactive; MIC (Enterococcus faecium [3]): 1.9 µM (≈ 0.76 µg/mL); fraction unbound at 5 h, 5 µM [8]: 0.0001; F [9]: 47%; Stability [10]: 76.6%; IC50 (Cytochrome P450 3A4): > 50 µM; Activity [11]: Non-Toxic; Activity (Enterococcus faecium [12]): Active; IC50 (Cytochrome P450 2C9): > 50 µM; t1/2 [13]: 85.6 min; AUC ([14]; mouse, po, 25 mg/kg): 75175 ng·h/mL; IC50 (Cytochrome P450 2C19): > 50 µM; fraction unbound at 5 h, 5 µM [15]: 0.007; IC50 (Cytochrome P450 2D6): > 50 µM; Stability [16]: 89.2%
O=C(NNC(=O)c1cc2c(s1)CCCC2)c1ccc([N+](=O)[O-])o1 | 37 µM (≈ 12.4 µg/mL) | 37 µM | –
O=C(NNC(=O)c1sc2cc(F)ccc2c1Cl)c1ccc([N+](=O)[O-])o1 | > 130 µM | > 130 µM | –
O=C(NNC(=O)c1cc2ccccc2o1)c1ccc([N+](=O)[O-])o1 | > 100 µM | 39 µM | –
O=C(c1ccc([N+](=O)[O-])o1)N1CCN(C(=O)c2cc3ccccc3s2)CC1 | > 130 µM | 16 µM | –
O=[N+]([O-])c1ccc(-c2nnc(-c3cc4ccccc4s3)o2)o1 | > 160 µM | 160 µM | –
O=C(NNC(=O)c1ccc([N+](=O)[O-])o1)c1cc2ccccc2[nH]1 | > 100 µM | > 160 µM | –
CC(C)(NC(=O)c1ccc([N+](=O)[O-])o1)c1cc2ccccc2s1 | > 150 µM | 38 µM | –
O=C(NNC(=O)c1sc2cc(C(F)(F)F)ccc2c1Cl)c1ccc([N+](=O)[O-])o1 | 3.6 µM (≈ 1.56 µg/mL) | 110 µM | –
O=C(NNC(=O)c1nc2ccccc2s1)c1ccc([N+](=O)[O-])o1 | 30 µM (≈ 9.97 µg/mL) | 150 µM | –
O=C(NNC(=O)c1cc2ccccc2s1)c1ccc([N+](=O)[O-])o1 | > 174 µM | – | MIC (Klebsiella pneumoniae): > 150 µM; t1/2 [5]: 3.3 min; solubility kinetic at 4 h [6]: 103 µM (≈ 34.1 µg/mL); MIC (Pseudomonas aeruginosa): > 150 µM; MIC (Acinetobacter baumannii): > 150 µM; MIC (Staphylococcus aureus): > 150 µM; AUC(0-t) [14]: 1280 ng·h/mL
O=C(NNC(=O)c1cc2cccc(Cl)c2s1)c1ccc([N+](=O)[O-])o1 | 4.2 µM (≈ 1.54 µg/mL) | 68 µM | –

Compound | MIC (Enterococcus faecium [1]) | CC50 [2] | also measured
O=C(NNC(=O)c1cc2ccc(Cl)cc2s1)c1ccc([N+](=O)[O-])o1 | > 136 µM | > 136 µM | –
O=C(NNC(=O)c1sc2cc(Cl)ccc2c1Cl)c1ccc(Cl)s1 | > 123 µM | 123 µM | –
O=C(NNC(=O)c1sc2cccc(Cl)c2c1Cl)c1ccc([N+](=O)[O-])o1 | 7.8 µM (≈ 3.12 µg/mL) | > 124 µM | –
CCCCCCCCCC(=O)N[C@@H](Cc1c[nH]c2ccccc12)C(=O)N[C@H](CC(N)=O)C(=O)N[C@@H](CC(=O)O)C(=O)N[C@@H]1C(=O)NCC(=O)N[C@@H](CCCN)C(=O)N[C@@H](CC(=O)O)C(=O)N[C@H](C)C(=O)N[C@@H](CC(=O)O)C(=O)NCC(=O)N[C@H](CO)C(=O)N[C@@H]([C@H](C)CC(=O)O)C(=O)N[C@@H](CC(=O)c2ccccc2N)C(=O)O[C@@H]1C | 10 µM (≈ 16.2 µg/mL) | – | –
O=C(NNC(=O)c1cc2cc(Cl)cc(Cl)c2s1)c1ccc([N+](=O)[O-])o1 | 0.75 µM (≈ 0.3 µg/mL) | 124 µM | t1/2 [5]: 13.3 min; solubility kinetic at 4 h [6]: 0.55 µM (≈ 0.22 µg/mL); AUC(0-t) [14]: 111000 ng·h/mL
O=C(NNC(=O)c1sc2ccc(Cl)cc2c1Cl)c1ccc([N+](=O)[O-])o1 | > 124 µM | > 124 µM | –
O=C(NNC(=O)c1cc2cc(C(F)(F)F)cc(Cl)c2s1)c1ccc([N+](=O)[O-])o1 | 1.8 µM (≈ 0.781 µg/mL) | > 110 µM | MIC (Klebsiella pneumoniae): > 120 µM; t1/2 [5]: 57.8 min; solubility kinetic at 4 h [6]: 0.06 µM (≈ 0.026 µg/mL); MIC (Pseudomonas aeruginosa): > 120 µM; MBC (Enterococcus faecium [17]): 7.7 µM (≈ 3.34 µg/mL); MIC (Acinetobacter baumannii): > 120 µM; MIC (Staphylococcus aureus): 16 µM (≈ 6.94 µg/mL); AUC(0-t) [14]: 43800 ng·h/mL
O=C(NNC(=O)c1sc2ccccc2c1Cl)c1ccc([N+](=O)[O-])o1 | 17 µM (≈ 6.22 µg/mL) | 68 µM | –
NC[C@H]1O[C@H](O[C@H]2[C@H](O)[C@@H](O[C@H]3O[C@H](CO)[C@@H](O)[C@H](N)[C@H]3O)[C@H](N)C[C@@H]2N)[C@H](O)[C@@H](O)[C@@H]1O [KANAMYCIN] | > 24 µM | – | –
O=C(N/N=C/c1cc2ccccc2s1)c1ccc([N+](=O)[O-])o1 | > 158 µM | 39 µM | –
O=C(NNC(=O)c1sc2cc(Cl)ccc2c1Cl)c1ccc(Cl)o1 | > 128 µM | 128 µM | –
O=C(NNC(=O)c1sc2cc(Cl)ccc2c1Cl)c1ccc([N+](=O)[O-])s1 | > 120 µM | > 120 µM | –
O=C(NNC(=O)c1sc2c(Cl)cccc2c1Cl)c1ccc([N+](=O)[O-])o1 | 62 µM (≈ 24.8 µg/mL) | > 120 µM | –
O=C(NNC(=O)c1cc2c(Cl)cc(Cl)cc2s1)c1ccc([N+](=O)[O-])o1 | 62 µM (≈ 24.8 µg/mL) | > 124 µM | –
C[C@@H](O)[C@H]1C(=O)N2C(C(=O)O)=C(S[C@@H]3CN[C@H](C(=O)N(C)C)C3)[C@H](C)[C@H]12 [MEROPENEM] | 19 µM (≈ 7.29 µg/mL) | – | –
O=C(NCCNC(=O)c1cc2ccccc2s1)c1ccc([N+](=O)[O-])o1 | > 140 µM | 139 µM | –
O=C(NNC(=O)c1cc2cc(Cl)ccc2s1)c1ccc([N+](=O)[O-])o1 | > 137 µM | > 137 µM | –
